# Laboratory results as given in patent publication US20250186541A1, “DLL3 TARGETING PEPTIDES AND CONSTRUCTS THEREOF” (MARIANA ONCOLOGY INC., priority 2023, published 2025).
# Numbered stars: 1 amine (or outer) side, 2 acyl side, 3 side chain; on linkers, the order of the positions; unused ones are H or OH. Bridge positions count the residues as written; N and C are the ends. Square brackets hold non-standard residues; d marks the D form. Peptide text beside a SMILES is read from it. * marks the point of attachment. ξ: configuration not given here. DOTA = O=C(O)CN1CCN(CC(=O)O)CCN(CC(=O)*)CCN(CC(=O)O)CC1; Phe(2-Cl) = N[C@@H](Cc1ccccc1Cl)C(=O)O; 1Nal = N[C@@H](Cc1cccc2ccccc12)C(=O)O; 2Nal = N[C@@H](Cc1ccc2ccccc2c1)C(=O)O; Phe(2-F) = N[C@@H](Cc1ccccc1F)C(=O)O; Phe(2-Me) = Cc1ccccc1C[C@H](N)C(=O)O; NMeF = CN[C@@H](Cc1ccccc1)C(=O)O; αMeF = C[C@](N)(Cc1ccccc1)C(=O)O; Chg = N[C@H](C(=O)O)C1CCCCC1; Pen = CC(C)(S)[C@H](N)C(=O)O; αMeP = C[C@@]1(C(=O)O)CCCN1; NMeC = CN[C@@H](CS)C(=O)O; dNMeA = CN[C@H](C)C(=O)O; CH2 = C([*:1])[*:2]; ξC = NC(CS)C(=O)O
# Biological target: T1, human DLL3 (Homo sapiens, UniProt Q9NYJ7)
# T1 construct: biotin (biotinylated)
# T1 sequence (Q9NYJ7 27-618): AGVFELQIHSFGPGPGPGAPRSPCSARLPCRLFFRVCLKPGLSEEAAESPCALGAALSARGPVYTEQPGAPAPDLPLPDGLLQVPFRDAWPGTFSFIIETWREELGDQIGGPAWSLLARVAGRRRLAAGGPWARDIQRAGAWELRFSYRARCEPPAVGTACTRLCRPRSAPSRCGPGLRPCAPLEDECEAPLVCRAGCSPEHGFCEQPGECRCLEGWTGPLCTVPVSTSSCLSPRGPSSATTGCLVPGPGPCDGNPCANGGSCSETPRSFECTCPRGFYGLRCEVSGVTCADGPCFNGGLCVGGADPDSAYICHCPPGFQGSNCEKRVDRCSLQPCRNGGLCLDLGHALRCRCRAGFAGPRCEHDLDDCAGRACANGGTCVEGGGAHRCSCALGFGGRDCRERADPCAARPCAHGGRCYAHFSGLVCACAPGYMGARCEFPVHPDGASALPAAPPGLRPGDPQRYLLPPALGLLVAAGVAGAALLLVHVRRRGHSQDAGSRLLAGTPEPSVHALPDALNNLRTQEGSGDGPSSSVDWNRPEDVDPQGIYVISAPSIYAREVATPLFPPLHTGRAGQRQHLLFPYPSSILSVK
# Assay: Affinity determination by Surface Plasmon Resonance (SPR), Biacore, 1:1 binding model
# Details: biotinylated human DLL3 on streptavidin chip, 25° C.; NB = nonbinding
# Summary of the method: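 SPR with biotinylated human DLL3 captured on a streptavidin chip, with a reference surface subtracted. Samples were injected at several concentrations at 100 μL/min in phosphate buffer with 137 mM NaCl, 2.7 mM KCl, 0.05% P20 and 2% DMSO. Kinetic and affinity constants came from a 1:1 binding fit.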
row,SMILES,Kd [nM]
1,"CC(=O)N[C@H](C(=O)N[C@@H](CO)C(=O)N[C@@H](CC(=O)O)C(=O)N[C@H]1CSSC[C@@H](C(=O)N(C)[C@H](C)C(=O)N[C@@](C)(Cc2ccccc2)C(=O)N[C@@H](CC(=O)O)C(=O)N[C@H](CCCCNC(=O)CN2CCN(CC(=O)O)CCN(CC(=O)O)CCN(CC(=O)O)CC2)C(N)=O)NC(=O)[C@H](CC(N)=O)NC(=O)[C@H](Cc2c[nH]c3ccccc23)NC(=O)[C@H](CCC(N)=O)NC(=O)[C@H](CC(C)C)NC(=O)[C@H](Cc2cccc3ccccc23)NC1=O)C1CCCCC1 [compound 109, Ac-(Chg)-S-D-C(3)-(1Nal)-L-Q-W-N-C(3)-(NMeD-Ala)-(aMe-F)-D-D-Lys(DOTA)-CONH2] (Ac-[Chg]SDC[1Nal]LQWNC[dNMeA][αMeF]D[dK](DOTA)-NH2; disulfide 4-10)",0.96
2,"CC(=O)N[C@H](C(=O)N[C@@H](CO)C(=O)N[C@@H](CC(=O)O)C(=O)N[C@H]1CSSC[C@@H](C(=O)N(C)[C@H](C)C(=O)N(C)[C@@H](Cc2ccccc2)C(=O)N[C@@H](CC(=O)O)C(=O)N[C@H](CCCCNC(=O)CN2CCN(CC(=O)O)CCN(CC(=O)O)CCN(CC(=O)O)CC2)C(N)=O)NC(=O)[C@H](CC(N)=O)NC(=O)[C@H](Cc2c[nH]c3ccccc23)NC(=O)[C@H](CCC(N)=O)NC(=O)[C@H](CC(C)C)NC(=O)[C@H](Cc2cccc3ccccc23)NC1=O)C1CCCCC1 [compound 110, Ac-(Chg)-S-D-C(3)-(1Nal)-L-Q-W-N-C(3)-(NMeD-Ala)-(NMe-F)-D-D-Lys(DOTA)-CONH2] (Ac-[Chg]SDC[1Nal]LQWNC[dNMeA][NMeF]D[dK](DOTA)-NH2; disulfide 4-10)",> 30
3,"CC(=O)N[C@H](C(=O)N[C@@H](CO)C(=O)N[C@@H](CC(=O)O)C(=O)N[C@H]1CSSC[C@@H](C(=O)N2CCC[C@H]2C(=O)N[C@@H](Cc2ccccc2)C(=O)N[C@@H](CC(=O)O)C(=O)N[C@H](CCCCNC(=O)CN2CCN(CC(=O)O)CCN(CC(=O)O)CCN(CC(=O)O)CC2)C(N)=O)NC(=O)[C@H](CC(N)=O)NC(=O)[C@H](Cc2ccc3ccccc3c2)NC(=O)[C@H](CCC(N)=O)NC(=O)[C@H](CC(C)C)NC(=O)[C@H](Cc2cccc3ccccc23)NC1=O)C1CCCCC1 [compound 114, Ac-(Chg)-S-D-C(3)-(1Nal)-L-Q-(2Nal)-N-C(3)-P-F-D-D-Lys(DOTA)-CONH2] (Ac-[Chg]SDC[1Nal]LQ[2Nal]NCPFD[dK](DOTA)-NH2; disulfide 4-10)",0.38
4,"CC(=O)N[C@H](C(=O)N[C@@H](CO)C(=O)N[C@@H](CC(=O)O)C(=O)N[C@H]1CSSC[C@@H](C(=O)N2CCC[C@H]2C(=O)N[C@@H](Cc2ccccc2)C(=O)N[C@@H](CC(=O)O)C(=O)N[C@H](CCCCNC(=O)CN2CCN(CC(=O)O)CCN(CC(=O)O)CCN(CC(=O)O)CC2)C(N)=O)N(C)C(=O)[C@H](CC(N)=O)NC(=O)[C@H](Cc2c[nH]c3ccccc23)NC(=O)[C@H](CCC(N)=O)NC(=O)[C@H](CC(C)C)NC(=O)[C@H](Cc2cccc3ccccc23)NC1=O)C1CCCCC1 [compound 115, Ac-(Chg)-S-D-C(3)-(1Nal)-L-Q-W-N-(NMe-Cys)-P-F-D-D-Lys(DOTA)-CONH2] (Ac-[Chg]SDC[1Nal]LQWN[NMeC]PFD[dK](DOTA)-NH2; disulfide 4-10)",> 100
5,"CC(=O)N[C@H](C(=O)N[C@@H](CO)C(=O)N[C@@H](CC(=O)O)C(=O)N[C@H]1CSSC[C@@H](C(=O)N2CCC[C@@H]2C(=O)N[C@@H](Cc2ccccc2)C(=O)N[C@@H](CC(=O)O)C(=O)N[C@H](CCCCNC(=O)CN2CCN(CC(=O)O)CCN(CC(=O)O)CCN(CC(=O)O)CC2)C(N)=O)NC(=O)[C@H](CC(N)=O)NC(=O)[C@H](Cc2c[nH]c3ccccc23)NC(=O)[C@H](CCC(N)=O)NC(=O)[C@H](CC(C)C)NC(=O)[C@H](Cc2cccc3ccccc23)NC1=O)C1CCCCC1 [compound 116, Ac-(Chg)-S-D-C(3)-(1Nal)-L-Q-W-N-C(3)-(D-Pro)-F-D-D-Lys(DOTA)-CONH2] (Ac-[Chg]SDC[1Nal]LQWNC[dP]FD[dK](DOTA)-NH2; disulfide 4-10)",> 30
6,"CC(=O)N[C@H](C(=O)N[C@@H](CO)C(=O)N[C@@H](CC(=O)O)C(=O)N[C@H]1CSSC[C@@H](C(=O)N2CCC[C@@]2(C)C(=O)N[C@@H](Cc2ccccc2F)C(=O)N[C@@H](CC(=O)O)C(=O)N[C@H](CCCCNC(=O)CN2CCN(CC(=O)O)CCN(CC(=O)O)CCN(CC(=O)O)CC2)C(N)=O)NC(=O)[C@H](CC(N)=O)NC(=O)[C@H](Cc2c[nH]c3ccccc23)NC(=O)[C@H](CCC(N)=O)NC(=O)[C@H](CC(C)C)NC(=O)[C@H](Cc2cccc3ccccc23)NC1=O)C1CCCCC1 [compound 117, Ac-(Chg)-S-D-C(3)-(1Nal)-L-Q-W-N-C(3)-(aMe-P)-(2F-Phe)-D-D-Lys(DOTA)-CONH2] (Ac-[Chg]SDC[1Nal]LQWNC[αMeP][Phe(2-F)]D[dK](DOTA)-NH2; disulfide 4-10)",0.66
7,"CC(=O)N[C@H](C(=O)N[C@@H](CO)C(=O)N[C@@H](CC(=O)O)C(=O)N[C@H]1CSSC[C@@H](C(=O)N2CCC[C@@]2(C)C(=O)N[C@@H](Cc2ccccc2Cl)C(=O)N[C@@H](CC(=O)O)C(=O)N[C@H](CCCCNC(=O)CN2CCN(CC(=O)O)CCN(CC(=O)O)CCN(CC(=O)O)CC2)C(N)=O)NC(=O)[C@H](CC(N)=O)NC(=O)[C@H](Cc2c[nH]c3ccccc23)NC(=O)[C@H](CCC(N)=O)NC(=O)[C@H](CC(C)C)NC(=O)[C@H](Cc2cccc3ccccc23)NC1=O)C1CCCCC1 [compound 118, Ac-(Chg)-S-D-C(3)-(1Nal)-L-Q-W-N-C(3)-(aMe-P)-(2Cl-Phe)-D-D-Lys(DOTA)-CONH2] (Ac-[Chg]SDC[1Nal]LQWNC[αMeP][Phe(2-Cl)]D[dK](DOTA)-NH2; disulfide 4-10)",0.74
8,"CC(=O)N[C@H](C(=O)N[C@@H](CO)C(=O)N[C@@H](CC(=O)O)C(=O)N[C@H]1CSSC[C@@H](C(=O)N2CCC[C@@]2(C)C(=O)N[C@@H](Cc2ccccc2C)C(=O)N[C@@H](CC(=O)O)C(=O)N[C@H](CCCCNC(=O)CN2CCN(CC(=O)O)CCN(CC(=O)O)CCN(CC(=O)O)CC2)C(N)=O)NC(=O)[C@H](CC(N)=O)NC(=O)[C@H](Cc2c[nH]c3ccccc23)NC(=O)[C@H](CCC(N)=O)NC(=O)[C@H](CC(C)C)NC(=O)[C@H](Cc2cccc3ccccc23)NC1=O)C1CCCCC1 [compound 119, Ac-(Chg)-S-D-C(3)-(1Nal)-L-Q-W-N-C(3)-(aMe-P)-(2Me-Phe)-D-D-Lys(DOTA)-CONH2] (Ac-[Chg]SDC[1Nal]LQWNC[αMeP][Phe(2-Me)]D[dK](DOTA)-NH2; disulfide 4-10)",0.65
9,"CC(=O)N[C@H](C(=O)N[C@@H](CO)C(=O)N[C@@H](CC(=O)O)C(=O)N[C@H]1CSSC(C)(C)[C@@H](C(=O)N2CCC[C@@]2(C)C(=O)N[C@@H](Cc2ccccc2)C(=O)N[C@@H](CC(=O)O)C(=O)N[C@H](CCCCNC(=O)CN2CCN(CC(=O)O)CCN(CC(=O)O)CCN(CC(=O)O)CC2)C(N)=O)NC(=O)[C@H](CC(N)=O)NC(=O)[C@H](Cc2c[nH]c3ccccc23)NC(=O)[C@H](CCC(N)=O)NC(=O)[C@H](CC(C)C)NC(=O)[C@H](Cc2cccc3ccccc23)NC1=O)C1CCCCC1 [compound 120, Ac-(Chg)-S-D-C(3)-(1Nal)-L-Q-W-N-Pen(3)-(aMe-P)-F-D-D-Lys(DOTA)-CONH2] (Ac-[Chg]SDC[1Nal]LQWN[Pen][αMeP]FD[dK](DOTA)-NH2; disulfide 4-10)",> 30
10,"CC(=O)N[C@H](C(=O)N[C@@H](CO)C(=O)N[C@@H](CC(=O)O)C(=O)NC1CSCSC[C@@H](C(=O)N2CCC[C@@]2(C)C(=O)N[C@@H](Cc2ccccc2)C(=O)N[C@@H](CC(=O)O)C(=O)N[C@H](CCCCNC(=O)CN2CCN(CC(=O)O)CCN(CC(=O)O)CCN(CC(=O)O)CC2)C(N)=O)NC(=O)[C@H](CC(N)=O)NC(=O)[C@H](Cc2c[nH]c3ccccc23)NC(=O)[C@H](CCC(N)=O)NC(=O)[C@H](CC(C)C)NC(=O)[C@H](Cc2cccc3ccccc23)NC1=O)C1CCCCC1 (stereo partly drawn) [compound 121, Ac-(Chg)-S-D-[D-Cys(1)]-(1Nal)-L-Q-W-N-C(1)-(aMe-P)-F-D-D-Lys(DOTA)-CONH2] (Ac-[Chg]SD[ξC][1Nal]LQWNC[αMeP]FD[dK](DOTA)-NH2; linker 4-10 via CH2)",> 30
11,"CC(=O)N[C@H](C(=O)N[C@@H](CO)C(=O)N[C@@H](CC(=O)O)C(=O)N[C@H]1CSCSC[C@H](C(=O)N2CCC[C@@]2(C)C(=O)N[C@@H](Cc2ccccc2)C(=O)N[C@@H](CC(=O)O)C(=O)N[C@H](CCCCNC(=O)CN2CCN(CC(=O)O)CCN(CC(=O)O)CCN(CC(=O)O)CC2)C(N)=O)NC(=O)[C@H](CC(N)=O)NC(=O)[C@H](Cc2c[nH]c3ccccc23)NC(=O)[C@H](CCC(N)=O)NC(=O)[C@H](CC(C)C)NC(=O)[C@H](Cc2cccc3ccccc23)NC1=O)C1CCCCC1 [compound 122, Ac-(Chg)-S-D-C(1)-(1Nal)-L-Q-W-N-[D-Cys(1)]-(aMe-P)-F-D-D-Lys(DOTA)-CONH2] (Ac-[Chg]SDC[1Nal]LQWN[dC][αMeP]FD[dK](DOTA)-NH2; linker 4-10 via CH2)",> 30
